Assay results published in patent publication US20200237759A1, “DOSAGE REGIME AND METHOD FOR TREATING PULMONARY ARTERIAL HYPERTENSION” (Altavant Sciences GmbH, priority 2019, published 2020).

Key:
serum 5-HT = experiment: Part 2 MAD biomarker: serum 5-HT change from Day 1; type: in vivo, human
Excerpt: (§1) Biomarkers were to be evaluated in Part 2 by measuring concentrations of serotonin (5-hydroxytryptamine [5-HT]) in serum and 5-hydroxyindoleacetic acid (5-HIAA) in plasma and urine. As well, the relationship of biomarkers to PK parameters was to be evaluated.
(§2) The biomarker analysis was to be based on the Biomarker Population (all subjects with evaluable biomarker measurements at baseline [Day 1 predose] and at least one after dosing [Day 7 or Day 14]).
(§3) Biomarker data were to be collected only in Part 2. The following biomarkers were to be analyzed: • Serum 5-HT • Plasma 5-HIAA • Urine 5-HIAA/24 hours (as measured, adjusted, estimated, and per gram creatinine)
Linear regression was to be performed using biomarker changes, absolute and relative (%), from Day 1, at predose on Day 7 or Day 14 versus AUC0-24, Cmax, and Cmin in corresponding study days. The slopes and corresponding 95% confidence intervals (CIs) were to be tabulated.
Summary statistics (mean, standard deviation [SD], median, minimum [Min], and maximum [Max]) were to be tabulated for each biomarker, by Cohort, with absolute and relative (%) changes from Day 1 predose.
The values were to be tabulated with P values testing whether the difference of changes was equal to 0.
(§4) The biomarker portion of the study was conducted in Part 2 MAD using the Biomarker Population. The biomarkers evaluated were serum 5-HT and plasma 5-HIAA, as well as urine 5-HIAA/24 hours (as measured, adjusted, estimated, and per gram creatinine). Urinary 5-HIAA was determined by a validated (21 C.F.R. 58, GLP-compliant) method using liquid chromatographic separation and tandem mass spectrometry detection.
The Biomarker Population consisted of all subjects with evaluable baseline (Day 1 predose) and at least one postdose (Day 7 or Day 14) biomarker measurements.
Biomarker data were analyzed for each KAR5585 dose separately, for all KAR5585 doses pooled, and for all placebo subjects pooled. […]

clinical = details: human, plasma, oral, 100 mg
Description: Food effect was to be evaluated in Part 1, Period 2.
Part 2 (MAD): BID doses (separated by approximately 12 hours on Days 1 to 13) and a single AM dose on Day 14. One or more of the MAD Cohort could have been dosed once daily (QD).
Pharmacokinetic data were to be summarized descriptively.

urine 5-HIAA/24 hours = experiment: Part 2 MAD biomarker: urine 5-HIAA/24 hours change from Day 1; type: in vivo, human
Excerpt: as §1, §2, §3
Linear regression was to be performed using biomarker changes, absolute and relative (%), from Day 1, at predose on Day 7 or Day 14 versus AUC0-24, Cmax, and Cmin in corresponding study days. The slopes and corresponding 95% confidence intervals (CIs) were to be tabulated. […]
as §4, with “detection. […]” for “detection.”
Biomarker data were analyzed for each KAR5585 dose separately, for all KAR5585 doses pooled, and for all placebo subjects pooled.
Urine 5 HIAA/24 hour was analyzed in 4 different manners: as measured in the 24-hour collection and (in order to correct for any collection errors) adjusted for creatinine excretion, estimated by the expected creatinine excretion for the subject (as defined in and expressed per gram creatinine. Results were similar for each of the 4 manners and are presented in this report for measured urine. Tables and figures for adjusted, estimated, and per-gram creatinine results are presented in Section 14. […]

[1] = Safety and tolerability in healthy adult subjects (Study KAR5585-101); type: in vivo, human

Row | Compound | correlation of change from baseline in serum 5-HT with AUC0-24, Cmax, C12 or AUC0-12 (serum 5-HT; Day 7) | correlation of change from baseline in serum 5-HT with AUC0-24, Cmax, C12 or AUC0-12 (serum 5-HT; Day 14) | concentration at 24 h (clinical) [ng/mL] | correlation of change from baseline in measured urine 5-HIAA with AUC0-24, Cmax, C12 or AUC0-12 (urine 5-HIAA/24 hours; Day 7) | correlation of change from baseline in measured urine 5-HIAA with AUC0-24, Cmax, C12 or AUC0-12 (urine 5-HIAA/24 hours; Day 14) | mean difference of percent changes from Day 1 in serum 5-HT compared to placebo (serum 5-HT; Day 7, 200 mg fed dose group) | tolerability ([1]; 400 mg single oral dose under fed conditions, 9 healthy adult subjects) | tolerability throughout the trial ([1]; Part 1 and Part 2, all doses) | safety and tolerability ([1]; multiple ascending oral doses 100-400 mg BID up to 14 days, 36 healthy adult subjects) | absolute and percent changes from Day 1 in creatinine-normalized urine 5-HIAA versus placebo (urine 5-HIAA/24 hours; Days 7 and 14, all dose groups)
1 | Nc1nc(O[C@H](c2ccc(Cl)cc2-c2ccccc2)C(F)(F)F)cc(N2CCC3(CC2)CN[C@H](C(=O)O)C3)n1 [KAR5417, (S)-8-(2-amino-6-((R)-1-(5-chloro-[1,1′-biphenyl]-2-yl)-2,2,2-trifluoroeth-oxy)pyrimidin-4-yl)-2,8-diazaspiro[4.5]decane-3-carboxylic acid] | no significant correlations | correlated | 19.7 | no significant correlations | significantly correlated | – | – | – | – | –
2 | CCOC(=O)[C@@H]1CC2(CCN(c3cc(O[C@H](c4ccc(Cl)cc4-c4ccccc4)C(F)(F)F)nc(N)n3)CC2)CN1 [KAR5585, (S)-ethyl 8-(2-amino-6-((R)-1-(5-chloro-[1,1′-biphenyl]-2-yl)-2,2,2-trifluoroethoxy)pyrimidin-4-yl)-2,8-diazaspiro[4.5]decane-3-carboxylate] | – | – | – | – | – | statistically significant | well-tolerated | well tolerated throughout the trial | safe and well-tolerated | statistically significant in favor of KAR5585
